From US20230148214A1, “INDAZOLES AND AZAINDAZOLES AS LRRK2 INHIBITORS” (ESCAPE Bio, Inc., priority 2020, published 2023)

Key:
LRRK2 WT = biological target: T1, LRRK2 WT (Homo sapiens, UniProt Q5S007); assay: LRRK2 Kinase Activity Assay (LanthaScreen TR-FRET), wild type; assay type: biochemical; conditions: recombinant wild type LRRK2, 25 μM ATP, 400 nM LRRKtide, 60 min; class symbols
T1 construct: purchased Life Technologies PR8604B
Outline: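 Recombinant wild-type or G2019S LRRK2 incubated with fluorescein-labeled LRRKtide (ERM-based) peptide, ATP and serially diluted compound for 60 min at room temperature.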

LRRK2 G2019S = biological target: T2, LRRK2 G2019S (Homo sapiens, UniProt Q5S007, G2019S); assay: LRRK2 Kinase Activity Assay (LanthaScreen TR-FRET), G2019S; assay type: biochemical; conditions: recombinant G2019S-LRRK2, 25 μM ATP, 400 nM LRRKtide, 60 min; class symbols
T2 construct: purchased Life Technologies PV4881
T2 sequence (Q5S007 whole entry G2019S): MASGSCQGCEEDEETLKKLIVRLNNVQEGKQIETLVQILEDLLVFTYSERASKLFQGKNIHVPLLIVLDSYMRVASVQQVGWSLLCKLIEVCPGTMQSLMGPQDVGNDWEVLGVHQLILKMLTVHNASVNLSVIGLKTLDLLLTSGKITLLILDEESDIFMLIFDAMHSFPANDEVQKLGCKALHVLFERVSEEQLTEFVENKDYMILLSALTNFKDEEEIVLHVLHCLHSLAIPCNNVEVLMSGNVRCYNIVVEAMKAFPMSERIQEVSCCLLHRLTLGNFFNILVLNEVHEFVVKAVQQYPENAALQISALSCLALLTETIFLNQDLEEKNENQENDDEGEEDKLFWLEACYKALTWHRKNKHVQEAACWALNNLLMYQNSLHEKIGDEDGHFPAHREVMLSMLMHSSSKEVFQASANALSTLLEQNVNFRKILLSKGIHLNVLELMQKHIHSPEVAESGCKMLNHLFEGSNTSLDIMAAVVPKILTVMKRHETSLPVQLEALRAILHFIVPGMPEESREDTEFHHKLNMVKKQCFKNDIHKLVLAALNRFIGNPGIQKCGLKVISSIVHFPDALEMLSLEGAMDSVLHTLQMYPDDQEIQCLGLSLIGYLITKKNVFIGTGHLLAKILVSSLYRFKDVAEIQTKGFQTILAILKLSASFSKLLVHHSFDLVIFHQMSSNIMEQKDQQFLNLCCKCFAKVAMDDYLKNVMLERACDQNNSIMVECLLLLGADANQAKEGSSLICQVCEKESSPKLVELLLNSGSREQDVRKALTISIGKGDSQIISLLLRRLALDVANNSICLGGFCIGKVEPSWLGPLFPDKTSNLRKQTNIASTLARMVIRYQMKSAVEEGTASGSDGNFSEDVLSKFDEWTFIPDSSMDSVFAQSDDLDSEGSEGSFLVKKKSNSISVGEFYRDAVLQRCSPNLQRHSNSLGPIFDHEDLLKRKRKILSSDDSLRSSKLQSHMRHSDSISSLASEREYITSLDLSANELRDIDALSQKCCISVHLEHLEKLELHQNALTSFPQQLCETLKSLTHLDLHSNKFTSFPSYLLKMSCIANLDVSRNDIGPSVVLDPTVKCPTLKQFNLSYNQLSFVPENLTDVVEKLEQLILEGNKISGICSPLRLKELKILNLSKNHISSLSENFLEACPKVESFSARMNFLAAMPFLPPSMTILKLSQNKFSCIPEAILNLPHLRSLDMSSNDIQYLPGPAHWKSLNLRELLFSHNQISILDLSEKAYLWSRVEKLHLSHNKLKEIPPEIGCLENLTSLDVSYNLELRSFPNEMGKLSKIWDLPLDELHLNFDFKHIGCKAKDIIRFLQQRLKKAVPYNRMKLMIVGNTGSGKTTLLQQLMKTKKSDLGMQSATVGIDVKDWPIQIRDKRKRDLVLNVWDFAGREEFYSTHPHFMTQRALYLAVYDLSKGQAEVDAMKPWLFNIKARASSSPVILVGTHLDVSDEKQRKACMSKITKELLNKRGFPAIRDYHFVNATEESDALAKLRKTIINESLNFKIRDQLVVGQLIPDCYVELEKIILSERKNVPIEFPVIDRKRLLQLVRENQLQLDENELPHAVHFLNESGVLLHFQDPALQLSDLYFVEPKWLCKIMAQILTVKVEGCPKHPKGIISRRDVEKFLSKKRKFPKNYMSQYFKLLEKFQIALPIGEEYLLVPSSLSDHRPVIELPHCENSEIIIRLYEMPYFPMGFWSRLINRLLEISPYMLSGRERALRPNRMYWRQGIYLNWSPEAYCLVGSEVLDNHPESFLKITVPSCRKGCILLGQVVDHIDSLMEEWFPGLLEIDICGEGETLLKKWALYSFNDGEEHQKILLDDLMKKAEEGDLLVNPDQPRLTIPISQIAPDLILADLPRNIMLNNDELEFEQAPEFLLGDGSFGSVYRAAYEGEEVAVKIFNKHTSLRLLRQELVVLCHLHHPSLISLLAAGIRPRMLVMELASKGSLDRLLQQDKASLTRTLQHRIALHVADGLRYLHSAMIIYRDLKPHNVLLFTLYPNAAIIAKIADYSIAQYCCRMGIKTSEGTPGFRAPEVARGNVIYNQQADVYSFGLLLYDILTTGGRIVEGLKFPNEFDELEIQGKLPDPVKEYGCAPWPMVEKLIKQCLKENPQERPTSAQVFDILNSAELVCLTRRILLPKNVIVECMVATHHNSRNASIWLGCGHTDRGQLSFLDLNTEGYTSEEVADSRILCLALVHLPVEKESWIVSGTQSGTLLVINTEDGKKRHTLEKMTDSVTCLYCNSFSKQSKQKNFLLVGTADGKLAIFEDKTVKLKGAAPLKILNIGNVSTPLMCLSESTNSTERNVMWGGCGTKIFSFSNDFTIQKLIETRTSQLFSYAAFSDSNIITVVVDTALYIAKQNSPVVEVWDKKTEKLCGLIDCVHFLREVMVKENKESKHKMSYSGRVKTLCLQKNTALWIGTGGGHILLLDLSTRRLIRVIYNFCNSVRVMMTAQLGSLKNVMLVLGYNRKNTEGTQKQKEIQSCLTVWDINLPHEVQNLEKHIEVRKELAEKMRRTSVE
Procedure: LRRK2 kinase activity was measured using a LanthaScreen™ Kinase Activity Assay from ThermoFisher Scientific. Recombinant wild type or G2019S-LRRK2 protein (Life Technologies, PR8604B or PV4881, respectively), was incubated with a fluorescein-labeled peptide substrate called LRRKtide that is based upon ezrin/radixin/moesin (ERM) (Life Technologies, PV4901) in the presence of ATP and serially diluted compound. […] Compound-dependent inhibition of the TR-FRET signal was used to generate a concentration-response curve for IC50 determination.
After 60 min incubation at room temperature, the reaction was stopped by addition of 10 μL of 2×stop solution containing a final concentration of 2 nM anti-pERM antibody and 10 mM EDTA.

T1 sequence (Q5S007 whole entry): as the sequence (Q5S007 whole entry G2019S) above, with S2019G counted along it

| SMILES | IC50 (LRRK2 WT) [nM] | IC50 (LRRK2 G2019S) [nM] |
| --- | --- | --- |
| N#Cc1cc2c(nc1Cl)[C@@H](Oc1ccc3[nH]nc(C4CC4)c3c1)CCC2 (single isomer, unassigned) [181, enantiomer 2, 2-Chloro-8-[(3-cyclopropyl-1H-indazol-5-yl)oxy]-5,6,7,8-tetrahydroquinoline-3-carbonitrile] | 100 to 1000 | < 100 |
| N#Cc1cnc2c(n1)CC[C@@H]2Oc1ccc2[nH]nc(-c3cnco3)c2c1 (single isomer, unassigned) [182, enantiomer 1, 5-((3-(Oxazol-5-yl)-1H-indazol-5-yl)oxy)-6,7-dihydro-5H-cyclopenta[b]pyrazine-2-carbonitrile] | < 100 | < 100 |
| Cc1c(C#N)c(Cl)nc2c1CCC[C@@H]2Nc1ccc2[nH]nc(C3CC3)c2c1 (single isomer, unassigned) [183, enantiomer 1, 2-Chloro-8-[(3-cyclopropyl-1H-indazol-5-yl)amino]-4-methyl-5,6,7,8-tetrahydroquinoline-3-carbonitrile] | 1000 to 10000 | 100 to 1000 |
| Cc1c(C#N)c(Cl)nc2c1CCC[C@@H]2Nc1ccc2[nH]nc(C3CC3)c2c1 (single isomer, unassigned) [183, enantiomer 2, 2-Chloro-8-[(3-cyclopropyl-1H-indazol-5-yl)amino]-4-methyl-5,6,7,8-tetrahydroquinoline-3-carbonitrile] | < 100 | < 100 |
| Cc1c(C#N)c(Cl)nc2c1CCC[C@@H]2Oc1ccc2[nH]nc(C3CC3)c2c1 (single isomer, unassigned) [184, enantiomer 1, 2-Chloro-8-[(3-cyclopropyl-1H-indazol-5-yl)oxy]-4-methyl-5,6,7,8-tetrahydroquinoline-3-carbonitrile] | < 100 | < 100 |
| Cc1c(C#N)c(Cl)nc2c1CCC[C@@H]2Oc1ccc2[nH]nc(C3CC3)c2c1 (single isomer, unassigned) [184, enantiomer 2, 2-Chloro-8-[(3-cyclopropyl-1H-indazol-5-yl)oxy]-4-methyl-5,6,7,8-tetrahydroquinoline-3-carbonitrile] | 1000 to 10000 | < 100 |
| COc1n[nH]c2ccc(O[C@H]3CCc4cc(C#N)c(Cl)nc43)cc12 (single isomer, unassigned) [185, enantiomer 1, 2-Chloro-7-[(3-methoxy-1H-indazol-5-yl)oxy]-6,7-dihydro-5H-cyclopenta[b]pyridine-3-carbonitrile] | < 100 | < 100 |
| COc1n[nH]c2ccc(O[C@H]3CCc4cc(C#N)c(Cl)nc43)cc12 (single isomer, unassigned) [185, enantiomer 2, 2-Chloro-7-[(3-methoxy-1H-indazol-5-yl)oxy]-6,7-dihydro-5H-cyclopenta[b]pyridine-3-carbonitrile] | 1000 to 10000 | 100 to 1000 |
| COc1n[nH]c2ccc(O[C@H]3CCCc4cc(C#N)c(Cl)nc43)cc12 (single isomer, unassigned) [186, enantiomer 1, 2-Chloro-8-[(3-methoxy-1H-indazol-5-yl)oxy]-5,6,7,8-tetrahydroquinoline-3-carbonitrile] | < 100 | < 100 |
| COc1n[nH]c2ccc(O[C@H]3CCCc4cc(C#N)c(Cl)nc43)cc12 (single isomer, unassigned) [186, enantiomer 2, 2-Chloro-8-[(3-methoxy-1H-indazol-5-yl)oxy]-5,6,7,8-tetrahydroquinoline-3-carbonitrile] | 1000 to 10000 | 100 to 1000 |
| COc1n[nH]c2ccc(O[C@H]3CCc4cc(C#N)c(Br)nc43)cc12 (single isomer, unassigned) [187, enantiomer 1, 2-Bromo-7-[(3-methoxy-1H-indazol-5-yl)oxy]-6,7-dihydro-5H-cyclopenta[b]pyridine-3-carbonitrile] | < 100 | < 100 |
| COc1n[nH]c2ccc(O[C@H]3CCc4cc(C#N)c(Br)nc43)cc12 (single isomer, unassigned) [187, enantiomer 2, 2-Bromo-7-[(3-methoxy-1H-indazol-5-yl)oxy]-6,7-dihydro-5H-cyclopenta[b]pyridine-3-carbonitrile] | 100 to 1000 | 100 to 1000 |
| COc1n[nH]c2ccc(O[C@H]3CCCc4cc(C#N)c(Br)nc43)cc12 (single isomer, unassigned) [188, enantiomer 1, 2-Bromo-8-[(3-methoxy-1H-indazol-5-yl)oxy]-5,6,7,8-tetrahydroquinoline-3-carbonitrile] | < 100 | < 100 |
| COc1n[nH]c2ccc(O[C@H]3CCCc4cc(C#N)c(Br)nc43)cc12 (single isomer, unassigned) [188, enantiomer 2, 2-Bromo-8-[(3-methoxy-1H-indazol-5-yl)oxy]-5,6,7,8-tetrahydroquinoline-3-carbonitrile] | 1000 to 10000 | 100 to 1000 |
| COc1n[nH]c2ccc(O[C@H]3CCc4cc(C#N)c(Cl)cc43)cc12 (single isomer, unassigned) [189, enantiomer 1, 6-Chloro-1-[(3-methoxy-1H-indazol-5-yl)oxy]-2,3-dihydro-1H-indene-5-carbonitrile] | 1000 to 10000 | 100 to 1000 |
| COc1n[nH]c2ccc(O[C@H]3CCc4cc(C#N)c(Cl)cc43)cc12 (single isomer, unassigned) [189, enantiomer 2, 6-Chloro-1-[(3-methoxy-1H-indazol-5-yl)oxy]-2,3-dihydro-1H-indene-5-carbonitrile] | 100 to 1000 | < 100 |
| Cc1cc2[nH]nc(-c3cnco3)c2cc1NC1CCCc2cc(C#N)cnc21 (single isomer, unassigned) [190, enantiomer 1, 8-[[6-Methyl-3-(1,3-oxazol-5-yl)-1H-indazol-5-yl]amino]-5,6,7,8-tetrahydroquinoline-3-carbonitrile] | < 100 | < 100 |
| N#Cc1ccc2c(c1)OCC[C@@H]2Nc1ccc2[nH]nc(-c3cnco3)c2c1 (single isomer, unassigned) [191, enantiomer 1, 4-((3-(oxazol-5-yl)-1H-indazol-5-yl)amino)chromane-7-carbonitrile] | 100 to 1000 | < 100 |
| N#Cc1ccc2c(c1)OCC[C@@H]2Nc1ccc2[nH]nc(-c3cnco3)c2c1 (single isomer, unassigned) [191, enantiomer 2, 4-{[3-(1,3-oxazol-5-yl)-1H-indazol-5-yl]amino}-3,4-dihydro-2H-1-benzopyran-7-carbonitrile] | < 100 | < 100 |
| N#Cc1ccc2c(c1)OCC[C@@H]2Nc1ccc2[nH]nc(-c3cnoc3)c2c1 (single isomer, unassigned) [192, enantiomer 1, 4-((3-(Isoxazol-4-yl)-1H-indazol-5-yl)amino)chromane-7-carbonitrile] | 100 to 1000 | 100 to 1000 |
| N#Cc1ccc2c(c1)OCC[C@@H]2Nc1ccc2[nH]nc(-c3cnoc3)c2c1 (single isomer, unassigned) [192, enantiomer 2, 4-((3-(Isoxazol-4-yl)-1H-indazol-5-yl)amino)chromane-7-carbonitrile] | < 100 | < 100 |
| N#Cc1ccc2c(c1)OCC[C@@H]2Nc1ccc2[nH]nc(I)c2c1 (single isomer, unassigned) [193, enantiomer 1, 4-((3-Iodo-1H-indazol-5-yl)amino)chromane-7-carbonitrile] | 1000 to 10000 | 100 to 1000 |
| N#Cc1ccc2c(c1)OCC[C@@H]2Nc1ccc2[nH]nc(I)c2c1 (single isomer, unassigned) [193, enantiomer 2, 4-((3-Iodo-1H-indazol-5-yl)amino)chromane-7-carbonitrile] | < 100 | < 100 |
| N#Cc1cnc2c(c1)OCC[C@@H]2Nc1ccc2[nH]nc(-c3cnco3)c2c1 (single isomer, unassigned) [194, enantiomer 1, 4-((3-(Oxazol-5-yl)-1H-indazol-5-yl)amino)-3,4-dihydro-2H-pyrano[3,2-b]pyridine-7-carbonitrile] | < 100 | < 100 |
| N#Cc1cnc2c(c1)OCC[C@@H]2Nc1ccc2[nH]nc(-c3cnco3)c2c1 (single isomer, unassigned) [194, enantiomer 2, 4-((3-(Oxazol-5-yl)-1H-indazol-5-yl)amino)-3,4-dihydro-2H-pyrano[3,2-b]pyridine-7-carbonitrile] | 100 to 1000 | 100 to 1000 |
| Cc1n[nH]c2ccc(O[C@H]3CCc4cc(C#N)ccc43)cc12 (single isomer, unassigned) [Example 1, enantiomer 1, 1-((3-Methyl-1H-indazol-5-yl)oxy)-2,3-dihydro-1H-indene-5-carbonitrile] | 100 to 1000 | < 100 |
| Cc1n[nH]c2ccc(O[C@H]3CCc4cc(C#N)ccc43)cc12 (single isomer, unassigned) [Example 1, enantiomer 2, 1-((3-Methyl-1H-indazol-5-yl)oxy)-2,3-dihydro-1H-indene-5-carbonitrile] | 100 to 1000 | < 100 |
| N#Cc1cnc2c(c1)CCC[C@@H]2Oc1ccc2[nH]nc(-c3cnoc3)c2c1 (single isomer, unassigned) [Example 2, enantiomer 1, 8-((3-(Isoxazol-4-yl)-1H-indazol-5-yl)oxy)-5,6,7,8-tetrahydroquinoline-3-carbonitrile] | < 100 | < 100 |
